Laboratory results published in article PMC11239005, “Preclinical studies of RA475, a guanidine-substituted spirocyclic candidate RPN13/ADRM1 inhibitor for treatment of ovarian cancer” (PLOS ONE, 2024).
pIC50: −log10 of the molar value. In brackets after ≈: the same amount, converted by molar mass. Several values for one entry are separate records, joined by “and”; a condition that tells them apart may be missing. Equal entries are not always repeated. Where two headings read alike, the source gives them in different places.

What was measured:
[1] = test system: PACS; test: MTT cytotoxicity assay, PACS; assay type: cell-based; settings: 72 h
Description: (§1) All cell lines were obtained from the American Type Culture Collection (ATCC) and cultured in the specified medium supplemented with 10% fetal bovine serum, 100 IU/mL penicillin, and 100 μg/mL streptomycin at 37°C in a humidified 5% CO2/95% air incubator. Synthesis of new compounds is described in S1 File, and >95% purity of RA475, Up284 and its analogs were confirmed by NMR and MS. To assess drug cytotoxicity, cells were seeded at 2,500 cells/well (10,000 cells/well for MM lines) in 100 μL medium in 96-well plate as triplicates and after 24 h treated with compounds for a further 72 h. To assess cytotoxicity, the cells were incubated for 2 h at 37°C according to the manufacturer’s protocol with the Thiazolyl Blue Tetrazolium Bromide (20 μL/well of 5 mg/mL stock solution in water) (Sigma, M5655) and A570 measured using a Benchmark Plus microplate spectrophotometer (BIO-RAD). IC50 was estimated using Graphpad Prism 7 software.

[2] = test system: ID8VegF; test: MTT cytotoxicity assay, ID8VegF; assay type: cell-based; settings: 72 h
Description: as §1

[3] = test system: BT549; test: MTT cytotoxicity assay, BT549; assay type: cell-based; settings: Homo sapiens, BT-549, BT549, 72 h
Description: as §1

[4] = test system: 4T1; test: MTT cytotoxicity assay, 4T1; assay type: cell-based; settings: Mus musculus, 4T1, 72 h
Description: as §1

[5] = test system: OVCAR3 cells; test: MTT cytotoxicity assay, OVCAR3; assay type: cell-based, human; settings: for pIC50: Homo sapiens, OVCAR-3, OVCAR3, 72 h
Description: as §1
To study the effect of RA475 in combination with approved therapeutics (DNA damaging agents or radiation) an MTT assay was performed using various concentrations of both drugs. Briefly PEA1 and OVCAR3 cells were each treated with drug combination (RA475 plus cisplatin) for 72 h in a checker board analysis and cell viability was measured using MTT assay. The data were analyzed and plotted using the Synergy Finder web application.

[6] = test system: HT29; test: MTT cytotoxicity assay, HT29; assay type: cell-based; settings: Homo sapiens, HT-29, HT29, 72 h
Description: as §1

[7] = Kinetic aqueous solubility in PBS pH 7.4; assay type: physicochemical; settings: 25 °C, pH 7.4, aqueous buffer, kinetic from dmso stock
Description: Kinetic solubility assays were performed according to Enamine’s aqueous solubility SOP. Briefly, using a 20 mM stock solution of the compound in 100% DMSO dilutions were prepared to a theoretical concentration of 400 μM in duplicates in phosphate-buffered saline pH 7.4 (138 mM NaCl, 2.7 mM KCl, 10 mM K-phosphate) with 2% final DMSO. The experimental compound dilutions in PBS were further allowed to equilibrate at 25°C on a thermostatic shaker for two hours and then filtered through HTS filter plates using a vacuum manifold. The filtrates of test compounds were diluted 2-fold with acetonitrile with 2% DMSO before measuring. In parallel, using a 20 mM stock solution of the compound in 100% DMSO dilutions were prepared to theoretical concentrations of 0 μM (blank), 10 μM, 25 μM, 50 μM, 100 μM, and 200 μM in 50% acetonitrile/PBS with 2% final DMSO to generate calibration curves. Ondansetron was used as a reference compound to control proper assay performance. 200 μL of each sample was transferred to a 96-well plate and measured in the 230–550 nm range with a 5 nm step. The concentrations of compounds in PBS filtrate are calculated using a dedicated Microsoft Excel calculation script. Proper absorbance wavelengths for calculations are selected for each compound manually based on absorbance maximums (absolute absorbance unit values for the minimum and maximum concentration points within the 0–3 OD range). Each final dataset is visually evaluated by the operator, and goodness of fit (R^2) is calculated for each calibration curve.

[8] = test system: Hep3B; test: MTT cytotoxicity assay, Hep3B; assay type: cell-based; settings: Homo sapiens, 72 h
Description: as §1

[9] = LogD measurement, shake-flask octanol/PBS pH 7.4; assay type: physicochemical; settings: for D: octanol/PBS pH 7.4, single injections 1-3; for LogD, pH 7.4: single injections 1-3
Description: Incubations were carried out in Eppendorf-type polypropylene microtubes in triplicates. A 2.5 μL aliquot of 20 mM DMSO stock of a test compound was added into the previously mutually saturated mixture containing 500 μL of PBS (pH 7.4) and 500 μL of octanol. The solution was allowed to mix in a rotator for 1 hour at 30 rpm. Phase separation was assured by centrifugation for 2 min at 6000 rpm. The octanol phase was diluted 100-fold with 40% acetonitrile, and the aqueous phase (PBS buffer) was diluted 10-fold. The samples (both phases) were analyzed using an HPLC system coupled with a tandem mass spectrometer. […] Calculations of the partition ratios were carried out using the equation below. D=do.So/dp.Sp where:
So–peak area of the analyte in octanol phase
SP–peak area of the analyte in PBS buffer
do–dilution coefficient for octanol phase

[10] = test system: MCF7; test: MTT cytotoxicity assay, MCF7; assay type: cell-based; settings: Homo sapiens, MCF7, 72 h
Description: as §1

| Structure (SMILES) | pIC50 [1] | pIC50 [2] | pIC50 [3] | pIC50 [4] | pIC50 [5] | synergy with cisplatin for cytotoxicity ([5]; OVCAR3, checker board, 72 h, Synergy Finder) | pIC50 [6] | solubility at 2 h ([7]; kinetic, 2% DMSO, 25°C, 2 h, read-out: PBS solubility, pH 7.4, Incubation 1) [µM] | solubility at 2 h ([7]; kinetic, 2% DMSO, 25°C, 2 h, read-out: PBS solubility, pH 7.4, Incubation 2) [µM] | solubility at 2 h ([7]; kinetic, 2% DMSO, 25°C, 2 h, read-out: PBS solubility, pH 7.4, Mean) [µM] | pIC50 [8] | D [9] | logD ([9]; pH 7.4, mean of three injections) | logD ([9]; pH 7.4, single injections 1-3) | LogD, pH 7.4 [9] | pIC50 [10] | solubility at 2 h [7] [µM] | logD ([9]; n-octanol/PBS, pH 7.4, mean of three injections) | logD ([9]; n-octanol/PBS, pH 7.4, single injections 1-3) |
| --- | --- | --- | --- | --- | --- | --- | --- | --- | --- | --- | --- | --- | --- | --- | --- | --- | --- | --- | --- |
| Cl.Cl.N#Cc1ccc(/C=C2/C(=O)/C(=C/c3ccc(C#N)cc3)C23CCN(C(=N)N)CC3)cc1 [RA475, 1,3-bis((E)-4-cyanobenzylidene)-2-oxo-7-azaspiro[3.5]nonane-7-carboximidamide dihydrochloride] | 6.24 | 5.74 | 6.64 | 6.58 | 6.72 | mild synergy | 6.40 | 136 | 138 | 137 | 6.00 | 3.84E+01 and 4.27E+01 and 3.16E+01 | 1.58 | 1.58 | 1.631 and 1.5 | 6.13 | – | – | – |
| N#Cc1ccc(/C=C2/C(=O)/C(=C/c3ccc(C#N)cc3)C23CCNCC3)cc1 [Up284, reference compound] | 6.90 | 6.70 | 7.15 | 6.92 | 7.30 | – | 7.37 | – | – | – | 6.80 | 1.15E+02 and 1.32E+02 and 1.44E+02 | – | – | 2.158 | 6.16 | 37 (≈ 13.5 µg/mL) | 2.12 | 2.06 |
